Experiment [1] deals with GDP-bound KRAS wild-type protein (Homo sapiens, UniProt P01116). The experiment in a line: Binding to KRAS by surface plasmon resonance (SPR), dissociation constant KD. The note with it: Single Cycle Kinetics. The method in brief:
(§1)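 SPR, 30°C: Avi-biotin RAS·GDP captured via Biotin CAPture (~100–300 RU); running buffer HBS pH 7.4, 1 mM DTT, 10 mM MgCl2, 0.01% Tween 20, 10 µM GDP, 4% DMSO. Single-cycle kinetics, 100 µL/min, 75 s injections; 1:1 model → KD.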
On the technique in general: Surface plasmon resonance follows binding to a sensor surface in real time, without labels.

Experiment [2] has as its target GDP-bound NRAS wild-type protein (Homo sapiens, UniProt P01111). The experiment in a line: Binding to NRAS by surface plasmon resonance (SPR), KD and KD ratio to KRAS. As to conditions: ratio of KD for GDP-bound NRAS wild-type protein to KD for KRAS. The method in brief:
as §1

The subject of experiment [3] is human lung cancer strain NCI-H441. The experiment in a line: NCI-H441 cell proliferation inhibitory activity (CellTiter-Glo, 4 days). The format is cell-based. As to conditions: NCI-H441 cells, 4 days, read-out: NCl-H441 IC50. In outline: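 Proliferation was scored by […] measured after the reagent was added to cultures kept at 37°C in 5% carbon dioxide.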
On the technique in general: ATP-based viability assays read luminescence as a measure of living cells.

Experiment [4] addresses HRAS wild-type protein (Homo sapiens, UniProt P01112). Briefly: Binding to HRAS by surface plasmon resonance (SPR), KD and KD ratio to KRAS. As to conditions: ratio of KD for HRAS wild-type protein to KD for KRAS. The method in brief: as §1

Sequence of GDP-bound NRAS wild-type protein (P01111 whole entry): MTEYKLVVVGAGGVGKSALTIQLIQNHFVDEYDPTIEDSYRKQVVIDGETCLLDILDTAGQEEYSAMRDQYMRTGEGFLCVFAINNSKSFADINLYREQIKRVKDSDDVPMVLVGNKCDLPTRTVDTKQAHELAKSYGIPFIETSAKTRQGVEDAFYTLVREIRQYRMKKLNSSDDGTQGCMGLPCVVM
Sequence of HRAS wild-type protein (P01112 whole entry): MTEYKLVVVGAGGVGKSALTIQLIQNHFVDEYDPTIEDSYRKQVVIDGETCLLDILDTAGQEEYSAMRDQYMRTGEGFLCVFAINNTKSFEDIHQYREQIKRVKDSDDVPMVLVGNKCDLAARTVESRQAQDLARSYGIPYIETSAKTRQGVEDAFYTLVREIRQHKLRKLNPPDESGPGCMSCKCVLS
Sequence of GDP-bound KRAS wild-type protein (P01116 1-188 isoform P01116-2): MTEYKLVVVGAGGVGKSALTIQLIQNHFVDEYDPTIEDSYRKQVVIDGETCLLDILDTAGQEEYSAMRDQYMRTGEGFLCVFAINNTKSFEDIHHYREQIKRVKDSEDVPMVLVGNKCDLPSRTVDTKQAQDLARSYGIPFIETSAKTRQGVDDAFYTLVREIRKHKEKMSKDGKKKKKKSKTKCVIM

As for `CCC[C@H]1C(=O)N[C@@H]([C@@H](C)CC)C(=O)N(C)CC(=O)N(C)[C@H]2C/C=C\CCN(C2=O)[C@@H](Cc2ccc(C(F)(F)F)cc2)C(=O)N(C)CC(=O)N[C@@H](CCc2cc(F)c(C(F)(F)F)c(F)c2)C(=O)N2CC3(CC3)C[C@H]2C(=O)N(C)C2(CCC2)C(=O)N(C)[C@@H]([C@@H](C)CC)C(=O)N(C)[C@H](C(=O)N(C)C)CC(=O)N1C` [PP3358], the Kd (as a rule, a measure of binding affinity in units of concentration) in experiment [1] was found to be 0.11 nM. Moreover, the “NRAS /KRAS” value in experiment [2] was “A (a compound having 10 or more and less than 20 is denoted as A)”. Moreover, the IC50 (usually the concentration that inhibits the measured activity by half) in experiment [3] came to 3.1 nM. Moreover, in experiment [4], the “HRAS /KRAS” value is “A (a compound having 10 or more and less than 20 is denoted as A)”.
As for `CCC[C@H]1C(=O)N[C@@H]([C@@H](C)CC)C(=O)N(C)CC(=O)N(C)[C@H]2C/C=C\CCN(C2=O)[C@@H](Cc2ccc(C(F)(F)F)cc2)C(=O)N(C)CC(=O)N[C@@H](CCc2ccc(C(F)(F)F)c(OC)c2)C(=O)N2CC3(CC3)C[C@H]2C(=O)N(C)C2(CCC2)C(=O)N(C)[C@@H](C(CC)CC)C(=O)N(C)[C@H](C(=O)N(C)C)CC(=O)N1C` [PP3361], in experiment [1], the Kd was determined as 1.5 nM. For the same molecule, in experiment [2], the “NRAS /KRAS” value is “A (a compound having 10 or more and less than 20 is denoted as A)”. For the same molecule, the half-inhibitory concentration (IC50) in experiment [3] came out at 4.7 nM. For the same molecule, in experiment [4], the “HRAS /KRAS” value is “A (a compound having 10 or more and less than 20 is denoted as A)”.
In experiment [1], `CCO[C@@H]1C[C@H]2C(=O)OC3(CCC3)C(=O)N(C)[C@@H](C3CCCC3)C(=O)N(C)[C@H](C(=O)N(C)C)CC(=O)N(C)[C@@H](CC(C)C)C(=O)N[C@@H]([C@@H](C)CC)C(=O)N3CCC[C@H]3C(=O)N(C)[C@H]3C/C=C\CCN(C3=O)[C@@H](Cc3ccc(C(F)(F)F)cc3)C(=O)N(C)CC(=O)N[C@@H](CCc3ccc(C(F)(F)F)c(OC)c3)C(=O)N2C1` [PP3362] showed a Kd of 0.84 nM. Further, the “NRAS /KRAS” value in experiment [2] was “A (a compound having 10 or more and less than 20 is denoted as A)”. In addition, the IC50 in experiment [3] came to 34.3 nM. Moreover, in experiment [4], the “HRAS /KRAS” value was “A (a compound having 10 or more and less than 20 is denoted as A)”.
In experiment [1], `CCO[C@@H]1C[C@H]2C(=O)OC3(CCC3)C(=O)N(C)[C@@H](C3CCCC3)C(=O)N(C)[C@H](C(=O)N(C)C)CC(=O)N(C)[C@@H](CC(C)C)C(=O)N[C@@H]([C@@H](C)CC)C(=O)N(C3CC3)CC(=O)N(C)[C@H]3C/C=C\CCN(C3=O)[C@@H](Cc3ccc(C(F)(F)F)cc3)C(=O)N(C)CC(=O)N[C@@H](CCc3ccc(C(F)(F)F)c(OC)c3)C(=O)N2C1` [PP3363] had a Kd of 1.8 nM. In addition, the “NRAS /KRAS” value in experiment [2] was “A (a compound having 10 or more and less than 20 is denoted as A)”. Also, in experiment [3], the IC50 worked out at 24.8 nM. Also, in experiment [4], the “HRAS /KRAS” value was “B (a compound having 3 or more and less than 10 is denoted as B)”.
Turning to `CCO[C@@H]1C[C@H]2C(=O)OC3(CCC3)C(=O)N(C)[C@@H](C3CCCC3)C(=O)N(C)[C@H](C(=O)N(C)C)CC(=O)N(C)[C@@H](CC(C)C)C(=O)N[C@@H]([C@@H](C)CC)C(=O)N(C)CC(=O)N(C)[C@H]3C/C=C\CCN(C3=O)[C@@H](Cc3ccc(C(F)(F)F)cc3)C(=O)N(C)CC(=O)N[C@@H](CCc3ccc(C(F)(F)F)c(OC)c3)C(=O)N2C1` [PP3364], in experiment [1], binding was put at a Kd of 0.16 nM. For the same molecule, in experiment [2], the “NRAS /KRAS” value is “A (a compound having 10 or more and less than 20 is denoted as A)”. The 50% inhibitory concentration (IC50) in experiment [3] was 8.2 nM. In addition, the “HRAS /KRAS” value in experiment [4] is “A (a compound having 10 or more and less than 20 is denoted as A)”.
In experiment [1], `CCCC[C@H]1C(=O)N[C@@H]([C@@H](C)CC)C(=O)N2CCC[C@H]2C(=O)N(C)[C@H]2C/C=C\CCN(C2=O)[C@@H](Cc2ccc(C(F)(F)F)cc2)C(=O)N(C)CC(=O)N[C@@H](CCc2ccc(C(F)(F)F)c(OC)c2)C(=O)N2C[C@H](OCC)C[C@H]2C(=O)OC2(CCC2)C(=O)N(C)[C@@H](C2CCCC2)C(=O)N(C)[C@H](C(=O)N(C)C)CC(=O)N1C` [PP3365] gave a dissociation constant Kd of 0.65 nM. The “NRAS /KRAS” value in experiment [2] was “AA (a compound having 20 or more is denoted as AA)”. For the same molecule, in experiment [3], the 50% inhibitory concentration (IC50) was found to be 19.4 nM. Moreover, the “HRAS /KRAS” value in experiment [4] is “A (a compound having 10 or more and less than 20 is denoted as A)”.
In turn, `CCCC[C@H]1C(=O)N[C@@H]([C@@H](C)CC)C(=O)N(C2CC2)CC(=O)N(C)[C@H]2C/C=C\CCN(C2=O)[C@@H](Cc2ccc(C(F)(F)F)cc2)C(=O)N(C)CC(=O)N[C@@H](CCc2ccc(C(F)(F)F)c(OC)c2)C(=O)N2C[C@H](OCC)C[C@H]2C(=O)OC2(CCC2)C(=O)N(C)[C@@H](C2CCCC2)C(=O)N(C)[C@H](C(=O)N(C)C)CC(=O)N1C` [PP3366] returned a Kd in experiment [1] of 1.1 nM. Also, the “NRAS /KRAS” value in experiment [2] is “A (a compound having 10 or more and less than 20 is denoted as A)”. Further, the concentration for half-maximal inhibition (IC50) in experiment [3] was 34.3 nM. Also, the “HRAS /KRAS” value in experiment [4] is “A (a compound having 10 or more and less than 20 is denoted as A)”.
In turn, `CCCC[C@H]1C(=O)N[C@@H]([C@@H](C)CC)C(=O)N(C)CC(=O)N(C)[C@H]2C/C=C\CCN(C2=O)[C@@H](Cc2ccc(C(F)(F)F)cc2)C(=O)N(C)CC(=O)N[C@@H](CCc2ccc(C(F)(F)F)c(OC)c2)C(=O)N2C[C@H](OCC)C[C@H]2C(=O)OC2(CCC2)C(=O)N(C)[C@@H](C2CCCC2)C(=O)N(C)[C@H](C(=O)N(C)C)CC(=O)N1C` [PP3367] came in with a dissociation constant (Kd) in experiment [1] of 0.18 nM. Besides, in experiment [2], the “NRAS /KRAS” value was “A (a compound having 10 or more and less than 20 is denoted as A)”. Further, the IC50 in experiment [3] was found to be 8.5 nM. In addition, the “HRAS /KRAS” value in experiment [4] was “A (a compound having 10 or more and less than 20 is denoted as A)”.
For the molecule `CCC[C@H]1C(=O)N[C@@H]([C@@H](C)CC)C(=O)N(C2CC2)CC(=O)N(C)[C@H]2C/C=C\CCN(C2=O)[C@@H](Cc2ccc(C(F)(F)F)cc2)C(=O)N(C)CC(=O)N[C@@H](CCc2ccc(C(F)(F)F)c(OC)c2)C(=O)N2C[C@H](OCC)C[C@H]2C(=O)OC2(CCC2)C(=O)N(C)[C@@H](C2CCCC2)C(=O)N(C)[C@H](C(=O)N(C)C)CC(=O)N1C` [PP3369], in experiment [1], the equilibrium dissociation constant (Kd) came out at 0.86 nM. For the same molecule, in experiment [2], the “NRAS /KRAS” value was “A (a compound having 10 or more and less than 20 is denoted as A)”. In experiment [3], the 50% inhibitory concentration (IC50) was determined as 9.1 nM. Further, the “HRAS /KRAS” value in experiment [4] is “A (a compound having 10 or more and less than 20 is denoted as A)”.
As to `CCC[C@H]1C(=O)N[C@@H]([C@@H](C)CC)C(=O)N(C)CC(=O)N(C)[C@H]2C/C=C\CCN(C2=O)[C@@H](Cc2ccc(C(F)(F)F)cc2)C(=O)N(C)CC(=O)N[C@@H](CCc2ccc(C(F)(F)F)c(OC)c2)C(=O)N2C[C@H](OCC)C[C@H]2C(=O)OC2(CCC2)C(=O)N(C)[C@@H](C2CCCC2)C(=O)N(C)[C@H](C(=O)N(C)C)CC(=O)N1C` [PP3370], the equilibrium dissociation constant (Kd) in experiment [1] came to 0.14 nM. Moreover, the “NRAS /KRAS” value in experiment [2] is “A (a compound having 10 or more and less than 20 is denoted as A)”. The IC50 in experiment [3] was 6.8 nM. Further, the “HRAS /KRAS” value in experiment [4] is “B (a compound having 3 or more and less than 10 is denoted as B)”.
Molecule `C#CC[C@H]1C(=O)N[C@@H]([C@@H](C)CC)C(=O)N2CCC[C@H]2C(=O)N(C)[C@H]2C/C=C\CCN(C2=O)[C@@H](Cc2ccc(C(F)(F)F)cc2)C(=O)N(C)CC(=O)N[C@@H](CCc2ccc(C(F)(F)F)c(OC)c2)C(=O)N2C[C@H](OCC)C[C@H]2C(=O)OC2(CCC2)C(=O)N(C)[C@@H](C2CCCC2)C(=O)N(C)[C@H](C(=O)N(C)C)CC(=O)N1C` [PP3371] returned a Kd in experiment [1] of 0.33 nM. The “NRAS /KRAS” value in experiment [2] is “A (a compound having 10 or more and less than 20 is denoted as A)”. The IC50 in experiment [3] was found to be 5.4 nM. Moreover, the “HRAS /KRAS” value in experiment [4] is “A (a compound having 10 or more and less than 20 is denoted as A)”.
